For assay [1], the system named is isolated rabbit thoracic aorta preparations. Briefly: Assay on vascular tone (vasorelaxation of methoxamine-precontracted aortic rings). It is filed as cell-based. Particulars: for EC50: Oryctolagus cuniculus, read-out: EC50 (concentration producing 50% of the maximum relaxation). The procedure:
The ability of the compounds of the invention to induce vasorelaxation in comparison to precursor compound, was tested in vitro in isolated rabbit thoracic aorta preparations (Wanstall J. C. et al., Br. J. Pharmacol., 134:463-472, 2001).
Male New Zealand rabbits (1, 8-2 Kg) were used. The animals were anaesthetized with sodium thiopental (50 mg/kg, iv), sacrificed by exsanguinations and then the thorax was opened and the aorta dissected. The aortas were placed immediately in Krebs-HEPES buffer (pH 7.4; composition mM: NaCl 130.0, KCl 3.7, NaHCO3 14.9, KH2PO4 1.2, MgSO4⊙7H2O 1.2, Glucose 11.0, HEPES 10.0, CaCl2.2H2O 1.6) and cut into ring segments (4-5 mm in length). Each ring was placed in a 5 ml tissue bath filled with Krebs-HEPES buffer (37° C.) aerated with 95% O2 and 5% CO2 and was then attached to a force transducer (Grass FT03), connected to a BIOPAC MP150 System for measurement of the isometric tension^2. The preparations were allowed to equilibrate for 1 h at a resting tension of 2 g with changes of the buffer every 15 minutes and then stimulated by exposure to 90 mM KCl (3 times) with intervening washings. After equilibration, the rings were precontracted submaximally with methoxamine (3 μM) and, when the contraction reach a steady state a cumulative concentration-response curve to the test compounds was obtained. The time intervals between doses were based on the time needed to reach a full a steady state response.
Responses to test compounds were expressed as a percentage of residual contraction and plotted against concentration of test compound. EC50 values (where EC50 is the concentration producing 50% of the maximum relaxation to the test compound) were interpolated from these plots.

Assay [2] concerns corticosteroid-induced glaucoma. Particulars: rabbit, administered topically twice a day; cited from earlier work.

For `C[C@H]1CC2C3CCC4=CC(=O)C=C[C@]4(C)[C@@]3(F)[C@@H](O)C[C@]2(C)[C@@]1(OC(=O)CCCO[N+](=O)[O-])C(=O)COC(=O)CCCO[N+](=O)[O-]` (stereo partly drawn) [Compound (2), (9R,10S,11S,13S,16S,17R)-9-fluoro-11-hydroxy-10,13,16-trimethyl-17-(2-(4-(nitrooxy)butanoyloxy)acetyl)-3-oxo-6,7,8,9,10,11,12,13,14,15,16,17-dodecahydro-3H-cyclopenta[a]phenanthren-17-yl 4-(nitrooxy)butanoate], the EC50 in assay [1] stood at 1680 ± 610 nM.
On to `COc1cc(C(=O)OCCCCO[N+](=O)[O-])ccc1OC(=O)OCC(=O)[C@@]1(OC(=O)CCCO[N+](=O)[O-])[C@@H](C)CC2C3CCC4=CC(=O)C=C[C@]4(C)[C@@]3(F)[C@@H](O)C[C@@]21C` (stereo partly drawn) [Compound (3), 4-(nitrooxy)butyl 4-((2-((9R,10S,11S,13S,16S,17R)-9-fluoro-11-hydroxy-10,13,16-trimethyl-17-(4-(nitrooxy)butanoyloxy)-3-oxo-6,7,8,9,10,11,12,13,14,15,16,17-dodecahydro-3H-cyclopenta[a]phenanthren-17-yl)-2-oxoethoxy)carbonyloxy)-3-methoxybenzoate], for which the EC50 in assay [1] stood at 1140 ± 480 nM.
`C[C@H]1C[C@H]2[C@@H]3CCC4=CC(=O)C=C[C@]4(C)[C@@]3(F)[C@@H](O)C[C@]2(C)[C@@]1(O)C(=O)CO` [betamethasone, Betamethasone]: the “EC50 (concentration producing 50% of the maximum relaxation)” value in assay [1] (rabbit aortic rings precontracted with methoxamine (3 μM), cumulative concentration-response curve) is given as “no effect”.
As for `C[C@@H]1C[C@H]2[C@@H]3CCC4=CC(=O)C=C[C@]4(C)[C@@]3(F)[C@@H](O)C[C@]2(C)[C@@]1(O)C(=O)COC(=O)c1ccc(CO[N+](=O)[O-])cc1` [dexamethasone 21-[(4-nitrooxymethyl)]benzoate], the “effects in corticosteroid-induced glaucoma (intraocular pressure, retro bulbar circulation, ciliary body morphology)” value in assay [2] is “may prevent the intraocular pressure increase, the impairment of retro bulbar circulation, and the morphological changes in the ciliary bodies”.
